Laboratory results published in US20250034150A1, “BTK INHIBITORS” (BIOGEN MA INC., priority 2021, published 2025).
Where a name gives a salt, the structure may show the parent alone.

Target: T1, BTK (Homo sapiens, UniProt Q06187)
T1 construct: purchased Upstate 14-552
Experiment: In Vitro BTK Kinase Assay: Btk-PolyGAT-LS Assay
Format: biochemical
Conditions: active BTK enzyme 0.25 nM, polyGAT 100 nM, 30 minutes, TRF readout; read-out: In Vitro BTK Kinase Assay IC50 Score
Method: The purpose of the BTK in vitro assay is to determine compound potency against BTK through the measurement of IC50. Compound inhibition is measured after monitoring the amount of phosphorylation of a fluorescein-labeled polyGAT peptide (Invitrogen PV3611) in the presence of active BTK enzyme (Upstate 14-552), ATP, and inhibitor. The BTK kinase reaction was done in a black 96 well plate (costar 3694). For a typical assay, a 24 μL aliquot of a ATP/peptide master mix (final concentration; ATP […], polyGAT 100 nM) in kinase buffer (10 mM Tris-HCl pH 7.5, 10 mM MgCl2, 200 μM […], 5 mM DTT, 0.01% Triton X-100, and 0.2 mg/ml casein) is added to each well. Next, […] of a 4-fold, 40× compound titration in 100% DMSO solvent is added, followed by adding 15 μL of BTK enzyme mix in 1× kinase buffer (with a final concentration of 0.25 nM). The assay is incubated for 30 minutes before being stopped with 28 μL of a 50 mM EDTA solution. Aliquots (5 uL) of the kinase reaction are transferred to a low volume white 384 well plate (Coming 3674), and 5 μL of a 2× detection buffer (Invitrogen PV3574, with 4 nM Tb—PY20 antibody, Invitrogen PV3552) is added. The plate is covered and incubated for 45 minutes at room temperature. Time resolved fluorescence (TRF) on Molecular Devices M5 (332 nm excitation; 488 nm emission; 518 nm fluorescein emission) is measured. IC50 values are calculated using a four parameter fit with 100% enzyme activity determined from the DMSO control and 0% activity from the EDTA control.

T1 sequence (Q06187 whole entry): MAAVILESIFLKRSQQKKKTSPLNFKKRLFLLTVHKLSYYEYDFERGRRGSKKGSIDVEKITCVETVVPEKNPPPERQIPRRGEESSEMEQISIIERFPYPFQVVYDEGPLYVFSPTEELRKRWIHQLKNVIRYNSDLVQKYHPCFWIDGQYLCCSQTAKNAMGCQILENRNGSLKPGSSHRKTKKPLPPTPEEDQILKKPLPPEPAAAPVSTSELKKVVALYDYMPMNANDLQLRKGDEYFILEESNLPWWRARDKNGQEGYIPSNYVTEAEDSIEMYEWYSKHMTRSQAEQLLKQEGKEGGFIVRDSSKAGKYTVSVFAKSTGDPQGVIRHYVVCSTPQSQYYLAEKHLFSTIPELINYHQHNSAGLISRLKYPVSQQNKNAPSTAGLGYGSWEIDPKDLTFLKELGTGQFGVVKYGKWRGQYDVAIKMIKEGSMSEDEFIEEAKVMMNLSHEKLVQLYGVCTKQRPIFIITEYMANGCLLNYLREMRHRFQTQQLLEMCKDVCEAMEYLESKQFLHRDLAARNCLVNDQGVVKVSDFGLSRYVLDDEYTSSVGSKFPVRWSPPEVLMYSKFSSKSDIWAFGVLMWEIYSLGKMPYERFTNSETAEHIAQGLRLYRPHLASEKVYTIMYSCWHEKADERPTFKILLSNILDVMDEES

| Compound | IC50 [nM] |
| --- | --- |
| Cn1cc(-c2cn3nccc3c(N3CCC(C)(CNC(=O)c4cn(C(C)(C)C)nn4)C3)n2)cn1 (stereo not shown) [Example 49, 1-(tert-butyl)-N-((3-methyl-1-(6-(1-methyl-1H-pyrazol-4-yl)pyrazolo[1,5-a]pyrazin-4-yl)pyrrolidin-3-yl)methyl)-1H-1,2,3-triazole-4-carboxamide] | 1000 to 10000 |
| CC(C)(C)n1cc(C(=O)NCc2ccc(-c3nc(N4CCOCC4)cn4nccc34)cc2)cn1 [Example 27, 1-(tert-butyl)-N-(4-(6-morpholinopyrazolo[1,5-a]pyrazin-4-yl)benzyl)-1H-pyrazole-4-carboxamide] | 1000 to 10000 |
| Cn1cc(-c2cn3nccc3c(-c3cc(F)c(CNC(=O)c4ccn(C(C)(C)C)n4)cc3F)n2)cn1 [Example 96, 1-(tert-butyl)-N-(2,5-difluoro-4-(6-(1-methyl-1H-pyrazol-4-yl)pyrazolo[1,5-a]pyrazin-4-yl)benzyl)-1H-pyrazole-3-carboxamide] | 10 to 1000 |
| Cn1cc(-c2cn3nccc3c(N3CCC(C)(CNC(=O)c4noc(C(C)(C)C)n4)C3)n2)cn1 (stereo not shown) [Example 42, 5-(tert-butyl)-N-((3-methyl-1-(6-(1-methyl-1H-pyrazol-4-yl)pyrazolo[1,5-a]pyrazin-4-yl)pyrrolidin-3-yl)methyl)-1,2,4-oxadiazole-3-carboxamide] | 1000 to 10000 |
| CN(C)c1cn2nccc2c(-c2ccc(CNC(=O)c3noc(C(C)(C)C)n3)cc2)n1 [Example 135, 5-(tert-butyl)-N-(4-(6-(dimethylamino)pyrazolo[1,5-a]pyrazin-4-yl)benzyl)-1,2,4-oxadiazole-3-carboxamide] | 10 to 1000 |
| Cc1cc(-c2nc(N3CCN(C)CC3)cn3nccc23)ccc1CNC(=O)c1cnn(C(C)(C)C)n1 [Example 124, 2-(tert-butyl)-N-(2-methyl-4-(6-(4-methylpiperazin-1-yl)pyrazolo[1,5-a]pyrazin-4-yl)benzyl)-2H-1,2,3-triazole-4-carboxamide trifluoroacetate] | 10 to 1000 |
| CN1CCN(c2cn3nccc3c(-c3ccc(CNC(=O)c4nnc(C(C)(C)C)o4)c(F)c3)n2)CC1 [Example 127] | 10 to 1000 |
| Cn1cc(-c2cn3nccc3c(N3CCC4(CC(NC(=O)c5noc(C(C)(C)C)n5)C4)C3)n2)cn1 (single isomer, unassigned) [Example 53, 5-(tert-butyl)-N-((2r,4s)-6-(6-(1-methyl-1H-pyrazol-4-yl)pyrazolo[1,5-a]pyrazin-4-yl)-6-azaspiro[3.4]octan-2-yl)-1,2,4-oxadiazole-3-carboxamide] | 10 to 1000 |
| Cc1cc(-c2nc(-c3cnn(C4COC4)c3)cn3nccc23)ccc1CNC(=O)c1noc(C(C)(C)C)n1 [Example 55, 5-(tert-butyl)-N-(2-methyl-4-(6-(1-(oxetan-3-yl)-1H-pyrazol-4-yl)pyrazolo[1,5-a]pyrazin-4-yl)benzyl)-1,2,4-oxadiazole-3-carboxamide] | < 1 |
| CC(C)(C)c1nc(C(=O)NCc2ccc(-c3nc(N4CCC4)cn4nccc34)cc2)no1 [Example 134, N-(4-(6-(azetidin-1-yl)pyrazolo[1,5-a]pyrazin-4-yl)benzyl)-5-(tert-butyl)-1,2,4-oxadiazole-3-carboxamide] | 1 to 10 |
| Cn1cc(-c2cc(-c3ccc(CNC(=O)c4cnn(C(C)(C)C)c4)cc3)n3cnnc3c2)cn1 [Example 77, 1-(tert-butyl)-N-(4-(7-(1-methyl-1H-pyrazol-4-yl)-[1,2,4]triazolo[4,3-a]pyridin-5-yl)benzyl)-1H-pyrazole-4-carboxamide] | 10 to 1000 |
| Cc1cc(-c2nc(-c3cnn(C)c3)cn3nccc23)ccc1CN1CCN(C2COC2)C(C)C1=O (stereo not shown) [Example 37, 3-methyl-1-(2-methyl-4-(6-(1-methyl-1H-pyrazol-4-yl)pyrazolo[1,5-a]pyrazin-4-yl)benzyl)-4-(oxetan-3-yl)piperazin-2-one] | 10 to 1000 |
| Cc1cc(-c2nc(N3CCN(C)CC3)cn3nccc23)ccc1CNC(=O)c1noc(C2(C)CC2)n1 [Example 131, N-(2-methyl-4-(6-(4-methylpiperazin-1-yl)pyrazolo[1,5-a]pyrazin-4-yl)benzyl)-5-(1-methylcyclopropyl)-1,2,4-oxadiazole-3-carboxamide trifluoroacetate] | 1 to 10 |
| Cc1cc(-c2nc(N3CCOCC3)cn3nccc23)ccc1CNC(=O)c1cnn(C(C)(C)C)n1 [Example 123, 2-(tert-butyl)-N-(2-methyl-4-(6-morpholinopyrazolo[1,5-a]pyrazin-4-yl)benzyl)-2H-1,2,3-triazole-4-carboxamide] | 10 to 1000 |

Now from value to molecule:

| IC50 [nM] | Compound |
| --- | --- |
| 10 to 1000 | CC(NC(=O)c1cn(C(C)(C)C)nn1)C1CCN(c2nc(-c3cnn(C)c3)cn3nccc23)CC1 (stereo not shown) [Example 163, 1-(tert-butyl)-N-(1-(1-(6-(1-methyl-1H-pyrazol-4-yl)pyrazolo[1,5-a]pyrazin-4-yl)piperidin-4-yl)ethyl)-1H-1,2,3-triazole-4-carboxamide] |
| 10 to 1000 | Cn1cc(-c2cn3nccc3c(N3CCCC(CNC(=O)c4cn(C(C)(C)C)nn4)CC3)n2)cn1 (stereo not shown) [Example 167, 1-(tert-butyl)-N-((1-(6-(1-methyl-1H-pyrazol-4-yl)pyrazolo[1,5-a]pyrazin-4-yl)azepan-4-yl)methyl)-1H-1,2,3-triazole-4-carboxamide] |
| 10 to 1000 | C[C@H]1CN(c2nc(-c3cnn(C)c3)cn3nccc23)CC[C@H]1CNC(=O)c1noc(C2(C)CC2)n1 (single isomer, unassigned) [Example 147] |
| 10 to 1000 | C[C@H]1C[C@H](CNC(=O)c2cn(C(C)(C)C)nn2)CCN1c1nc(-c2cnn(C)c2)cn2nccc12 (single isomer, unassigned) [Example 140] |
| 10 to 1000 | C[C@@H]1C[C@H](CNC(=O)c2cn(C(C)(C)C)nn2)CCN1c1nc(-c2cnn(C)c2)cn2nccc12 (single isomer, unassigned) [Example 141] |
| 10 to 1000 | Cn1cc(-c2cn3nccc3c(N3C[C@H]4CC[C@@H](C3)[C@H]4CNC(=O)c3noc(C(C)(C)C)n3)n2)cn1 [Example 164, 5-(tert-butyl)-N-(((1R,5S,8s)-3-(6-(1-methyl-1H-pyrazol-4-yl)pyrazolo[1,5-a]pyrazin-4-yl)-3-azabicyclo[3.2.1]octan-8-yl)methyl)-1,2,4-oxadiazole-3-carboxamide] |
| 10 to 1000 | CC(C)CN1CCN(CC2CCN(c3nc(-c4cnn(C)c4)cn4nccc34)CC2)C(=O)C1 [Example 168, 4-isobutyl-1-((1-(6-(1-methyl-1H-pyrazol-4-yl)pyrazolo[1,5-a]pyrazin-4-yl)piperidin-4-yl)methyl)piperazin-2-one] |
| 1000 to 10000 | CC(C)N1CCN(CC2CCN(c3nc(-c4cnn(C)c4)cn4nccc34)CC2)C(=O)C1 [Example 173, 4-isopropyl-1-((1-(6-(1-methyl-1H-pyrazol-4-yl)pyrazolo[1,5-a]pyrazin-4-yl)piperidin-4-yl)methyl)piperazin-2-one] |
| 10 to 1000 | Cn1cc(-c2cn3nccc3c(N3CCCC(CNC(=O)c4noc(C(C)(C)C)n4)CC3)n2)cn1 (stereo not shown) [Example 166, 5-(tert-butyl)-N-((1-(6-(1-methyl-1H-pyrazol-4-yl)pyrazolo[1,5-a]pyrazin-4-yl)azepan-4-yl)methyl)-1,2,4-oxadiazole-3-carboxamide] |
| 10 to 1000 | C[C@@H]1CN(c2nc(-c3cnn(C)c3)cn3nccc23)CC[C@@H]1CNC(=O)c1cn(C(C)(C)C)nn1 (single isomer, unassigned) [Example 150] |
| 10 to 1000 | C[C@@H]1CN(c2nc(-c3cnn(C)c3)cn3nccc23)CC[C@H]1CNC(=O)c1noc(C2(C)CC2)n1 (single isomer, unassigned) [Example 145] |
